From patent publication US12435059B2, “AMP-activated protein kinase inhibitors and methods of making and using the same” (The Regents of the University of Colorado, priority 2019, dated 2025)
Like-named read-outs stand apart in the source and are kept apart here.

Key:
[1] = target: T1, AMPKα1 (Homo sapiens (Human), UniProt Q13131); experiment: LANCE Eu TR-FRET recombinant kinase assay, AMPK(α1); assay type: biochemical; conditions: mean±S.D. (n=3); ATP 8 μM; read-out: IC50 (nM) AMPK(α1)
Method: (§1) Assays were performed at 25° C. in a reaction mixture consisting of 2.5 μL serially diluted inhibitor solution, 2.5 μL kinase, 2.5 μL ATP and 2.5 μL substrate. Reagents were incubated for 1 hr before the reaction was halted through the addition of EDTA (10 mM) after which Eu anti-phospho-CREB (Ser133) antibody (PerkinElmer) was added at a final concentration of 2 nM for 1 hr. […] (n=3)).

[2] = target: T2, AMPK(α2) (Homo sapiens (Human), UniProt P54646); experiment: LANCE Eu TR-FRET recombinant kinase assay, AMPK(α2); assay type: biochemical; conditions: mean±S.D. (n=3); ATP 20 μM
Method: as §1

[3] = tested on: cellular AMPK; experiment: p-ACC(Ser79) ELISA in K562 cell lysates (glucose-free media, 2-DG); assay type: cell-based; conditions: K562, dose response, FIG. 2B
Method: FIGS. 2A and 2B are a series of graphs showing the effects of compounds of the present disclosure on cellular levels of p-ACC(Ser79) in K562 cells. FIG. 2A Quantitative ELISA determination of p-ACC(Ser79) levels in K562 lysates (1.0 mg mL^−1 total protein) following growth in glucose-free media for 24 h, 2-DG (12 mM) treatment for 1 h followed by treatment with inhibitor compounds at 5.0 μM for 2 h. Relative p-ACC levels are reported as a percentage of levels resultant from DMSO control treatment. […] Cells were collected, washed with PBS and lysed on ice in lysis buffer containing 1% Triton X (Cell Signaling). Lysates were someated (1×5 seconds) and centrifuged for 10 minutes at 10,000 rpm and 4° C., and the protein concentration in supernatants was determined by Lowry assay. Lysates were diluted with ELISA PathScan® sample diluent to a final volume of 100 μL and protein concentration of 1.0 mg/ml prior to use. The concentration of p-ACC (Ser79) was determined using an enzyme-linked immunosorbent assay according to recommended protocol (Cell Signaling, ELISA PathScan® phospho-Acetyl-CoA Carboxylase (Ser79)) and expressed as a relative percentage of the DMSO control.
The AMPK substrate ACC is used as a biomarker for the relative activity of AMPK, and the levels of p-ACC(Ser79) were measured by ELISA in the absence or presence of the compounds to determine the compounds' effects on cellular AMPK activity. The presence of total AMPK, p-AMPK, total ACC, and p-ACC was measured by Western blot in a panel of leukemic cell lines grown in glucoe competent or glucose-free media. […] The cell lysates from K562 cells grown in glucose-free media in the presence 2-DG and treated with compounds of the present disclosure were analyzed by the p-ACC(Ser79) ELISA to determine the effect of the compounds on cellular AMPK activity.

[4] = tested on: K562 cells; experiment: Annexin-V/DAPI flow cytometry viability of K562 cells under hypoxic culture conditions; assay type: cell-based; conditions: K562, 5% O2, RPMI-1640, 72 hours
Method: FIG. 4 are a series of graphs showing the cell viability of K562 cells grown under hypoxic culture conditions and treated with compounds of the present disclosure. […] After pre-incubation cells were treated with the compounds of the present disclosure for 24 hours (left panel) and 72 hours (right panel) in a hypoxic environment. After treatment cells, were stained with Annexin-V-APC and DAPI in annexin buffer, incubated for 15 minutes at 4° C. and analyzed immediately by flow cytometry (Celesta, BD Bioscience). Viable cells were scored as Annexin V-negative and DAPI-negative population. A high-throughput sampler (BD Bioscience) was used to allow automated sampling processes. (n=3, error bars: ±S.D.).

[5] = target: 468 kinases (Homo sapiens, UniProt O14936); experiment: biochemical; assay type: binding; conditions: CASK; read-out: % Inhibition @ 100 nM
[6] = target: 468 kinases (Homo sapiens, UniProt P00533, G719S); experiment: biochemical; assay type: binding; conditions: EGFR(G719S); read-out: % Inhibition @ 100 nM
[7] = target: 468 kinases (Homo sapiens, UniProt P50613); experiment: biochemical; assay type: binding; conditions: CDK7; read-out: % Inhibition @ 100 nM
[8] = target: 468 kinases (Homo sapiens, UniProt P78368); experiment: biochemical; assay type: binding; conditions: CSNK1G2; read-out: % Inhibition @ 100 nM
[9] = target: 468 kinases (Homo sapiens, UniProt Q9BZL6); experiment: biochemical; assay type: binding; conditions: PRKD2; read-out: % Inhibition @ 100 nM
[10] = target: 468 kinases (Homo sapiens, UniProt Q9H2X6); experiment: biochemical; assay type: binding; conditions: HIPK2; read-out: % Inhibition @ 100 nM
[11] = target: 468 kinases (Homo sapiens, UniProt Q9UK32); experiment: biochemical; assay type: binding; conditions: read-out: % Inhibition @ 100 nM
[12] = target: T1, AMPKα1; experiment: Kinome binding analysis at 100 nM, AMPK(α1); conditions: read-out: Percentage inhibition at 100 nM, AMPK(α1)
[13] = target: T2, AMPK(α2); experiment: Kinome binding analysis at 100 nM, AMPK(α2); conditions: AMPK-alpha2
[14] = target: VEGFR2 (Homo sapiens (Human), UniProt P35968); experiment: Kinome binding analysis at 100 nM, VEGFR2; conditions: read-out: Percentage inhibition at 100 nM, VEGFR2
[15] = target: BTK (Homo sapiens (Human), UniProt Q06187); experiment: Kinome binding analysis at 100 nM, BTK; conditions: for BTK inhibition, in words: 100 nM
[16] = target: CSF1R (Homo sapiens (Human), UniProt P07333); experiment: Kinome binding analysis at 100 nM, CSF1R; conditions: read-out: Percentage inhibition at 100 nM, CSF1R
[17] = target: JAK1-JH2 domain pseudokinase (Homo sapiens (Human), UniProt P23458); experiment: Kinome binding analysis at 100 nM, JAK1 JH2 pseudokinase; conditions: read-out: Percentage inhibition at 100 nM, JAKI JH2-pseudokinase
[18] = target: KIT-autoinhibited (Homo sapiens (Human), UniProt P10721); experiment: Kinome binding analysis at 100 nM, KIT-autoinhibited; conditions: read-out: Percentage inhibition at 100 nM, KIT-autoinbibited
[19] = target: KDR (Homo sapiens (Human), UniProt P35968); experiment: LanthaScreen Eu TR-FRET KDR competitive binding assay; conditions: read-out: IC50 (nM) KDR; mean±S.D. (n=3); competitive binding

Row | SMILES | IC50 [1] [nM] | IC50 [2] [nM] | p-ACC level reduction across concentration range compared with sunitinib [3] | Cell viability under hypoxic conditions after 72 hours [4] | inhibition at 0.1 µM [5] [%] | inhibition at 0.1 µM [6] [%] | inhibition at 0.1 µM [7] [%] | inhibition at 0.1 µM [8] [%] | inhibition at 0.1 µM [9] [%] | inhibition at 0.1 µM [10] [%] | inhibition at 0.1 µM ([11]; RSK4(Kin.Dom.1-N-terminal)) [%] | inhibition at 0.1 µM ([11]; RSK4(Kin.Dom.2-C-terminal)) [%] | inhibition at 0.1 µM [12] [%] | inhibition at 0.1 µM [13] [%] | inhibition at 0.1 µM [14] [%] | BTK inhibition, in words [15] | inhibition at 0.1 µM [16] [%] | inhibition at 0.1 µM [17] [%] | inhibition at 0.1 µM [18] [%] | IC50 [19] [nM] | further results
1 | CCN(CC)CCNC(=O)c1c(C)[nH]c(/C=C2\C(=O)Nc3ccc(CCO)cc32)c1C [Compound No. 10, (Z)—N-(2-(Diethylamino)ethyl)-5-((5-(2-hydroxyethyl)-2-oxoindolin-3-ylidene)methyl)-2,4-dimethyl-1H-pyrrole-3-carboxamide] | 173 ± 15 | 20.5 ± 2.7 | significant reduction of p-ACC levels compared to sunitinib at all concentrations tested except for 50 μM | marked decrease in cell viability | 19 | 9 | 86 | 0 | 0 | 58 | 0 | 4 | 49 | 64 | 55 | no observable effect | 24 | 54 | 28 | 848 ± 41 | 
2 | CCN(CC)CCNC(=O)c1c(C)[nH]c(/C=C2\C(=O)Nc3ccc(CCC(N)=O)cc32)c1C [Compound No. 16, (Z)-5-((5-(3-Amino-3-oxopropyl)-2-oxoindolin-3-ylidene)methyl)-N-(2-(diethylamino)ethyl)-2,4-dimethyl-1H-pyrrole-3-carboxamide] | 107 ± 17 | 60.7 ± 16.5 | significant reductions at both 3.125 μM and 12.5 μM | no measurable impact on cell viability | 34 | 21 | 80 | 3 | 16 | 99.5 | 70 | 22 | 29 | 35 | 19 | no observable effect | 18 | 41 | 0 | 3820 ± 530 | inhibition at 0.1 µM ([15]; read-out: Percentage inhibition at 100 nM, BTK): 0%
